Reference: ChEMBL document CHEMBL1156366, “Sequoiatones C-f, constituents of the redwood endophyte Aspergillus parasiticus” (J Nat Prod, 2001)

Test: Toxicity against brine shrimp
Format: organism-based
Conditions: artemia, in vivo; read-out: LD50 (the source's name)

Structure (SMILES) | LC50
CCCCCC[C@H](C)C(=O)/C=C1\C(C(=O)OC)=C2C=COC(C)=C2[C@]1(C)O [SEQUOIATONE C] | 260 µM
COC(=O)C1=C2C=C(C)OC=C2[C@](C)(O)/C1=C/C(=O)[C@@H](C)CCCCCCO [SEQUOIATONE D] | 1300 µM
COC(=O)C1=C2C=COC(C)=C2[C@](C)(O)/C1=C/C(=O)[C@@H](C)CCCCCCO [SEQUOIATONE E] | 640 µM
CCCCCC[C@H](C)C(=O)/C=C1\C(C(=O)OC)=C2C=C(C)OC=C2[C@]1(C)O [SEQUOIATONE F] | 260 µM
